# Several values for one entry are separate records, joined by “and”; a condition that tells them apart may be missing. Identical values can stand only once.
# Tested on: K98450-129-R-PDC multicell spheroids, viability
# Assay: Anticancer human tumor K98450-129-R-PDC patient-derived colon adenocarcinoma cell line growth inhibition [PI3K]
# Details: for viability, T/C: stronger effect = lower value
# Procedure, shortened: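 Tumor cells were combined with HUVEC and MSCs into spheroids, then dosed with PI3K-inhibitor combinations over half-log ranges capped near clinical Cmax or 10 microM.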
# 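Also: spheroids exposed to agents for seven days before read-out.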
smiles,measurement,setting,value
CC(C)n1nc(-c2ccc3oc(N)nc3c2)c2c(N)ncnc21 + COc1c(OCCCN2CCOCC2)ccc2c3n(c(=NC(=O)c4cnc(N)nc4)nc12)CCN3,IC50,"curve of first compound, second compound 0.00316 µM",> 100 nM
same,IC50,"curve of first compound, second compound 0.01 µM",> 100 nM
same,IC50,"curve of first compound, second compound 0.0316 µM",> 100 nM
same,IC50,"curve of first compound, second compound 0.1 µM",> 100 nM
same,IC50,"curve of first compound, second compound 0.316 µM",> 100 nM
same,IC50,"curve of first compound, second compound 1 µM",50.7 nM
same,"viability, T/C","second compound 0.00316 µM, first compound 0.000316 µM",107%
same,"viability, T/C","second compound 0.00316 µM, first compound 0.001 µM",97.4%
same,"viability, T/C","second compound 0.00316 µM, first compound 0.00316 µM",107%
same,"viability, T/C","second compound 0.00316 µM, first compound 0.01 µM",83.6%
same,"viability, T/C","second compound 0.00316 µM, first compound 0.0316 µM",94.1%
same,"viability, T/C","second compound 0.00316 µM, first compound 0.1 µM",72.2%
same,"viability, T/C","second compound 0.01 µM, first compound 0.000316 µM",114%
same,"viability, T/C","second compound 0.01 µM, first compound 0.001 µM",86.4%
same,"viability, T/C","second compound 0.01 µM, first compound 0.00316 µM",96%
same,"viability, T/C","second compound 0.01 µM, first compound 0.01 µM",92.2%
same,"viability, T/C","second compound 0.01 µM, first compound 0.0316 µM",94.9%
same,"viability, T/C","second compound 0.01 µM, first compound 0.1 µM",69%
same,"viability, T/C","second compound 0.0316 µM, first compound 0.000316 µM",116%
same,"viability, T/C","second compound 0.0316 µM, first compound 0.001 µM",86%
same,"viability, T/C","second compound 0.0316 µM, first compound 0.00316 µM",85.2%
same,"viability, T/C","second compound 0.0316 µM, first compound 0.01 µM",67.9%
same,"viability, T/C","second compound 0.0316 µM, first compound 0.0316 µM",74%
same,"viability, T/C","second compound 0.0316 µM, first compound 0.1 µM",56.9%
same,"viability, T/C","second compound 0.1 µM, first compound 0.000316 µM",76.6%
same,"viability, T/C","second compound 0.1 µM, first compound 0.001 µM",93%
same,"viability, T/C","second compound 0.1 µM, first compound 0.00316 µM",81.7%
same,"viability, T/C","second compound 0.1 µM, first compound 0.01 µM",78.7%
same,"viability, T/C","second compound 0.1 µM, first compound 0.0316 µM",67.1%
same,"viability, T/C","second compound 0.1 µM, first compound 0.1 µM",55.5%
same,"viability, T/C","second compound 0.316 µM, first compound 0.000316 µM",58.1%
same,"viability, T/C","second compound 0.316 µM, first compound 0.001 µM",60.9%
same,"viability, T/C","second compound 0.316 µM, first compound 0.00316 µM",66.1%
same,"viability, T/C","second compound 0.316 µM, first compound 0.01 µM",70.4%
same,"viability, T/C","second compound 0.316 µM, first compound 0.0316 µM",73.1%
same,"viability, T/C","second compound 0.316 µM, first compound 0.1 µM",47.7%
same,"viability, T/C","second compound 1 µM, first compound 0.000316 µM",53%
same,"viability, T/C","second compound 1 µM, first compound 0.001 µM",59.4%
same,"viability, T/C","second compound 1 µM, first compound 0.00316 µM",58.5%
same,"viability, T/C","second compound 1 µM, first compound 0.01 µM",69.8%
same,"viability, T/C","second compound 1 µM, first compound 0.0316 µM",54.8%
same,"viability, T/C","second compound 1 µM, first compound 0.1 µM",35.2%
CC(Cn1ccc(-c2ccc(C#N)c(Cl)c2)n1)NC(=O)c1cc(C(C)O)[nH]n1 (centres undefined),"viability, T/C",compound 0.0316 µM,92.4% and 103% (2×) and 102%
same,"viability, T/C",compound 0.1 µM,107% [middle of 4 runs]
same,"viability, T/C",compound 0.316 µM,102% [middle of 4 runs]
same,"viability, T/C",compound 1 µM,95.1% and 107% (2×) and 91.3%
same,"viability, T/C",compound 3.16 µM,108% and 104% (2×) and 96.2%
same,"viability, T/C",compound 10 µM,104% [middle of 4 runs]
same,IC50,curve of compound,> 10000 nM
